# Experimental data: PubChem BioAssay (NCI)
#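 GI50 = concentration required for 50% inhibition of growth. TGI denotes the concentration required for complete inhibition of growth.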
# What was measured:
# Assay in all cases: DTP human tumour cell line panel, 384-well format
# 786-0 renal = system: 786-0 renal
# A498 renal = system: A498 renal
# A549 NSCLC = system: A549 NSCLC
# ACHN renal = system: ACHN renal
# BT-549 breast = system: BT-549 breast
# CAKI-1 renal = system: CAKI-1 renal
# CCRF-CEM leukemia = system: CCRF-CEM leukemia
# COLO 205 colon = system: COLO 205 colon
# DU-145 prostate = system: DU-145 prostate
# EKVX NSCLC = system: EKVX NSCLC
# HCT-116 colon = system: HCT-116 colon
# HCT-15 colon = system: HCT-15 colon
# HL-60(TB) leukemia = system: HL-60(TB) leukemia
# HOP-62 NSCLC = system: HOP-62 NSCLC
# HOP-92 NSCLC = system: HOP-92 NSCLC
# HS 578T breast = system: HS 578T breast
# HT29 colon = system: HT29 colon
# IGROV1 ovarian = system: IGROV1 ovarian
# K-562 leukemia = system: K-562 leukemia
# KM12 colon = system: KM12 colon
# LOX IMVI melanoma = system: LOX IMVI melanoma
# M14 melanoma = system: M14 melanoma
# MALME-3M melanoma = system: MALME-3M melanoma
# MCF7 breast = system: MCF7 breast
# MDA-MB-231 breast = system: MDA-MB-231 breast
# MDA-MB-435 melanoma = system: MDA-MB-435 melanoma
# MDA-MB-468 breast = system: MDA-MB-468 breast
# MOLT-4 leukemia = system: MOLT-4 leukemia
# NCI-H226 lung = system: NCI-H226 lung
# NCI-H23 lung = system: NCI-H23 lung
# NCI-H322M lung = system: NCI-H322M lung
# NCI-H460 NSCLC = system: NCI-H460 NSCLC
# NCI-H522 lung = system: NCI-H522 lung
# NCI/ADR-RES ovarian = system: NCI/ADR-RES ovarian
# OVCAR-3 ovarian = system: OVCAR-3 ovarian
# OVCAR-4 ovarian = system: OVCAR-4 ovarian
# OVCAR-5 ovarian = system: OVCAR-5 ovarian
# PC-3 prostate = system: PC-3 prostate
# RPMI-8226 leukemia = system: RPMI-8226 leukemia
# RXF 393 renal = system: RXF 393 renal
# SF-268 CNS = system: SF-268 CNS
# SF-295 CNS = system: SF-295 CNS
# SF-539 CNS = system: SF-539 CNS
# SK-MEL-2 melanoma = system: SK-MEL-2 melanoma
# SK-MEL-28 melanoma = system: SK-MEL-28 melanoma
# SK-MEL-5 melanoma = system: SK-MEL-5 melanoma
# SK-OV-3 ovarian = system: SK-OV-3 ovarian
# SN12C renal = system: SN12C renal
# SNB-19 CNS = system: SNB-19 CNS
# SNB-75 CNS = system: SNB-75 CNS
# SR leukemia = system: SR leukemia
# SW-620 colon = system: SW-620 colon
# T-47D breast = system: T-47D breast
# TK-10 renal = system: TK-10 renal
# U251 glioblastoma = system: U251 glioblastoma
# UACC-257 melanoma = system: UACC-257 melanoma
# UACC-62 melanoma = system: UACC-62 melanoma
# UO-31 renal = system: UO-31 renal
structure (smiles),measurement,setting,value
C[C@@H](Oc1ccc(Oc2cnc3ccc(Cl)cc3n2)cc1)C(=O)O,GI50,786-0 renal,> 100 µM
same,TGI,786-0 renal,> 100 µM
same,GI50,A498 renal,86.9 µM
same,TGI,A498 renal,> 100 µM
same,GI50,A549 NSCLC,42.6 µM
same,TGI,A549 NSCLC,> 100 µM
same,GI50,ACHN renal,32.1 µM
same,TGI,ACHN renal,> 100 µM
same,GI50,BT-549 breast,58.3 µM
same,TGI,BT-549 breast,> 100 µM
same,GI50,CAKI-1 renal,85.3 µM
same,TGI,CAKI-1 renal,> 100 µM
same,GI50,CCRF-CEM leukemia,3.68 µM
same,TGI,CCRF-CEM leukemia,> 100 µM
same,GI50,COLO 205 colon,28.6 µM
same,TGI,COLO 205 colon,> 100 µM
same,GI50,DU-145 prostate,45.4 µM
same,TGI,DU-145 prostate,> 100 µM
same,GI50,EKVX NSCLC,> 100 µM
same,TGI,EKVX NSCLC,> 100 µM
same,GI50,HCT-116 colon,77.4 µM
same,TGI,HCT-116 colon,> 100 µM
same,GI50,HCT-15 colon,73.7 µM
same,TGI,HCT-15 colon,> 100 µM
same,GI50,HL-60(TB) leukemia,4.5 µM
same,TGI,HL-60(TB) leukemia,26.1 µM
same,GI50,HOP-62 NSCLC,43.3 µM
same,TGI,HOP-62 NSCLC,> 100 µM
same,GI50,HOP-92 NSCLC,96.4 µM
same,TGI,HOP-92 NSCLC,> 100 µM
same,GI50,HS 578T breast,> 100 µM
same,TGI,HS 578T breast,> 100 µM
same,GI50,HT29 colon,> 100 µM
same,TGI,HT29 colon,> 100 µM
same,GI50,IGROV1 ovarian,73.1 µM
same,TGI,IGROV1 ovarian,> 100 µM
same,GI50,K-562 leukemia,53.3 µM
same,TGI,K-562 leukemia,> 100 µM
same,GI50,KM12 colon,> 100 µM
same,TGI,KM12 colon,> 100 µM
same,GI50,LOX IMVI melanoma,> 100 µM
same,TGI,LOX IMVI melanoma,> 100 µM
same,GI50,M14 melanoma,> 100 µM
same,TGI,M14 melanoma,> 100 µM
same,GI50,MALME-3M melanoma,> 100 µM
same,TGI,MALME-3M melanoma,> 100 µM
same,GI50,MCF7 breast,22.5 µM
same,TGI,MCF7 breast,> 100 µM
same,GI50,MDA-MB-231 breast,> 100 µM
same,TGI,MDA-MB-231 breast,> 100 µM
same,GI50,MDA-MB-435 melanoma,> 100 µM
same,TGI,MDA-MB-435 melanoma,> 100 µM
same,GI50,MDA-MB-468 breast,24.8 µM
same,TGI,MDA-MB-468 breast,> 100 µM
same,GI50,MOLT-4 leukemia,1.46 µM
same,TGI,MOLT-4 leukemia,2.82 µM
same,GI50,NCI-H226 lung,> 100 µM
same,TGI,NCI-H226 lung,> 100 µM
same,GI50,NCI-H23 lung,> 100 µM
same,TGI,NCI-H23 lung,> 100 µM
same,GI50,NCI-H322M lung,> 100 µM
same,TGI,NCI-H322M lung,> 100 µM
same,GI50,NCI-H460 NSCLC,6.16 µM
same,TGI,NCI-H460 NSCLC,> 100 µM
same,GI50,NCI-H522 lung,25.9 µM
same,TGI,NCI-H522 lung,> 100 µM
same,GI50,NCI/ADR-RES ovarian,78.3 µM
same,TGI,NCI/ADR-RES ovarian,> 100 µM
same,GI50,OVCAR-3 ovarian,> 100 µM
same,TGI,OVCAR-3 ovarian,> 100 µM
same,GI50,OVCAR-4 ovarian,> 100 µM
same,TGI,OVCAR-4 ovarian,> 100 µM
same,GI50,OVCAR-5 ovarian,> 100 µM
same,TGI,OVCAR-5 ovarian,> 100 µM
same,GI50,PC-3 prostate,> 100 µM
same,TGI,PC-3 prostate,> 100 µM
same,GI50,RPMI-8226 leukemia,> 100 µM
same,TGI,RPMI-8226 leukemia,> 100 µM
same,GI50,RXF 393 renal,97.5 µM
same,TGI,RXF 393 renal,> 100 µM
same,GI50,SF-268 CNS,> 100 µM
same,TGI,SF-268 CNS,> 100 µM
same,GI50,SF-295 CNS,33.2 µM
same,TGI,SF-295 CNS,> 100 µM
same,GI50,SF-539 CNS,97.1 µM
same,TGI,SF-539 CNS,> 100 µM
same,GI50,SK-MEL-2 melanoma,> 100 µM
same,TGI,SK-MEL-2 melanoma,> 100 µM
same,GI50,SK-MEL-28 melanoma,> 100 µM
same,TGI,SK-MEL-28 melanoma,> 100 µM
same,GI50,SK-MEL-5 melanoma,62.5 µM
same,TGI,SK-MEL-5 melanoma,> 100 µM
same,GI50,SK-OV-3 ovarian,> 100 µM
same,TGI,SK-OV-3 ovarian,> 100 µM
same,GI50,SN12C renal,> 100 µM
same,TGI,SN12C renal,> 100 µM
same,GI50,SNB-19 CNS,> 100 µM
same,TGI,SNB-19 CNS,> 100 µM
same,GI50,SNB-75 CNS,> 100 µM
same,TGI,SNB-75 CNS,> 100 µM
same,GI50,SR leukemia,1.71 µM
same,TGI,SR leukemia,4.65 µM
same,GI50,SW-620 colon,43.4 µM
same,TGI,SW-620 colon,> 100 µM
same,GI50,T-47D breast,> 100 µM
same,TGI,T-47D breast,> 100 µM
same,GI50,TK-10 renal,61.4 µM
same,TGI,TK-10 renal,> 100 µM
same,GI50,U251 glioblastoma,63.9 µM
same,TGI,U251 glioblastoma,> 100 µM
same,GI50,UACC-257 melanoma,> 100 µM
same,TGI,UACC-257 melanoma,> 100 µM
same,GI50,UACC-62 melanoma,36.5 µM
same,TGI,UACC-62 melanoma,> 100 µM
same,GI50,UO-31 renal,87.1 µM
same,TGI,UO-31 renal,> 100 µM
